Calls of active or inactive are those of the source.
Experiments:
[1] = target: Ion channel NompC (Danio rerio, UniProt Q7T1G6); assay: Dose response cell-based high-throughput screening assay for agonists of the transient receptor potential channel N1 (TRPN1). [Related pubchem assays (depositor defined):AID1424, AID1448]; type: functional
[2] = target: T1, Mucolipin-3 (Homo sapiens, UniProt Q8TDD5); assay: Fluorescence counterscreen assay for […] agonists: dose response cell-based high-throughput screening assay to identify agonists of the transient receptor potential channel ML3 (TRPML3). [Related pubchem assays: 1424, 1448 ]; type: functional
T1 sequence (Q8TDD5 whole entry): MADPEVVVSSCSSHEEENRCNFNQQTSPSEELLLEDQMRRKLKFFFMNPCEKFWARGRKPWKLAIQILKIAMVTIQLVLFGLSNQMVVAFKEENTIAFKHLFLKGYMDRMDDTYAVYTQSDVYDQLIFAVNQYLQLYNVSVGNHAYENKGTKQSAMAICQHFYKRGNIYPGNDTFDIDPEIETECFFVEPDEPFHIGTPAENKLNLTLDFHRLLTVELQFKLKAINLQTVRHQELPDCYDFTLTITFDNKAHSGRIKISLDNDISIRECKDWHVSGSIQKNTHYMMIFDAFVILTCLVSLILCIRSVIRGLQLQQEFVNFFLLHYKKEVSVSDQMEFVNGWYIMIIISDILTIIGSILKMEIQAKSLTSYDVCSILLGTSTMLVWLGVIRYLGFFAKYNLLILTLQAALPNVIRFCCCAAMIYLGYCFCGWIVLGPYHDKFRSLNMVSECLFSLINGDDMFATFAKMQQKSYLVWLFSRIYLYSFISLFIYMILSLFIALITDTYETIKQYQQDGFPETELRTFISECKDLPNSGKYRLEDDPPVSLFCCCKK

[3] = inhibitors of firefly luciferase expression or activity, dose response, H4 neuroglioma cells, luminescence (AID 1990); type: functional, cell-based
[4] = Luminescence Cell-Based Dose Response HTS to Identify Inhibitors of 5'UTR Stem-Loop Driven Prion Protein mRNA Translation in H4 Neuroglioblastoma Cells. [Related pubchem assays: 1827 (Project Summary), 1813 (Primary HTS)]; type: functional
[5] = inhibitors of SNCA 5'UTR-driven reporter translation, confirmation, H4 neuroglioma cells, luminescence (AID 1988); type: functional, cell-based
[6] = target: DNA damage-inducible transcript 3 protein (Mus musculus, UniProt P35639); type: functional, Cricetulus griseus
[7] = target: X-box-binding protein 1 (Homo sapiens, UniProt P17861); type: functional, Cricetulus griseus;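 note: confirmatory dose-response counter-screen serving a CHOP assay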
[8] = target: Alkaline phosphatase, placental type (Homo sapiens, UniProt P05187); assay: PLAP enzyme inhibitors, confirmation, biochemical, luminescence (AID 1512); type: functional
[9] = target: T2, Alkaline phosphatase, tissue-nonspecific isozyme (Homo sapiens, UniProt P05186); assay: human TNAP enzyme inhibitors, SAR follow-up, biochemical, luminescent, dose response (AID 1056)
T2 sequence (P05186 whole entry): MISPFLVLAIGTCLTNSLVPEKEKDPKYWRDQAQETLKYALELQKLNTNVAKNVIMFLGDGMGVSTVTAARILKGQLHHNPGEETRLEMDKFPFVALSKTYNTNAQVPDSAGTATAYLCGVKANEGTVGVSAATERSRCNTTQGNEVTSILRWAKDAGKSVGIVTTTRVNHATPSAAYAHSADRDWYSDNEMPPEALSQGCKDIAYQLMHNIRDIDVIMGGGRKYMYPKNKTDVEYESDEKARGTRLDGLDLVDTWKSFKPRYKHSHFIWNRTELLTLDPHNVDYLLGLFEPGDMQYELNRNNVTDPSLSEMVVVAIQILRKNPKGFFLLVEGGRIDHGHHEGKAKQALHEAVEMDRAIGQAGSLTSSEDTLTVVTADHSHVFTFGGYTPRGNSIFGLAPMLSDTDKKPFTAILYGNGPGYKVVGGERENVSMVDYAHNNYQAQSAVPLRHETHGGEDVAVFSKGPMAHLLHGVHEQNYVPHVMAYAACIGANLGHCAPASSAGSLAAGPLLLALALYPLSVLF

[10] = target: Mitogen-activated protein kinase 10 (Homo sapiens, UniProt P53779); assay: Dose response biochemical screening assay for inhibitors of c-Jun N-Terminal Kinase 3 (JNK3). [Related pubchem assays: 746 ]
[11] = target: Integrin alpha-L (Mus musculus, UniProt P24063); assay: modulators of CD8 T cell-vesicle binding, dose response, powder samples, mouse 2C CD8+ cells (AID 504565); type: functional
[12] = tested on: T-cell; assay: inhibitors of CD8+ T cell–vesicle binding, dose response, mouse 2C CD8+ T cells, flow cytometry (AID 485284); type: functional
[13] = target: Troponin, cardiac muscle (Homo sapiens, UniProt P19429+P45379+P63316); assay: Fluorescence-based biochemical high throughput dose response assay for activators of the calcium sensitivity of cardiac Regulated Thin Filaments (RTF). [Related pubchem assays (depositor defined):AID493008, AID493018, AID504382, AID504383]; type: protein-complex assay
[14] = tested on: HEK293; assay: NOD1 signaling inhibitors, primary screen, cell-based, luminescence, uHTS (AID 1578); type: functional; details: Homo sapiens
[15] = tested on: HEK293; assay: cells; type: functional, cell-based; details: Homo sapiens
[16] = tested on: HEK293; assay: cells; type: functional, cell-based; details: Homo sapiens; remark: listed apart in the source
[17] = target: Nucleotide-binding oligomerization domain-containing protein 2 (Homo sapiens, UniProt Q9HC29); assay: NOD2 signaling inhibitors, cell-based, luminescence, uHTS, HEK293 (AID 1566); type: functional
[18] = tested on: HEK293; assay: NOD2 signaling inhibitors in MDP-stimulated cells, cell-based, uHTS, luminescence (AID 2001); type: functional; details: Homo sapiens
[19] = inhibitors of intracellular T. cruzi replication, confirmation, NIH3T3 host cells, beta-gal luminescence (AID 2044); type: functional, cell-based;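 note: intracellular parasites grown in NIH/3T3 mouse fibroblasts as host cells; luminescent beta-galactosidase reporter signal from transgenic T. cruzi replicating inside host cells; inhibitors lower the luminescence signal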
[20] = tested on: HEK293; assay: cells; type: functional, cell-based; details: Homo sapiens; remark: listed apart in the source
[21] = growth suppression of PTEN-null colon cells, dose response, cell-based, HCT116 PTEN knockout (AID 1047); type: functional;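 note: HCT116 colon tumor cells with PTEN knocked out; cells exposed to compound for 60 hours before readout; potency for loss of cell viability measured by luminescence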
[22] = growth suppression of beta-catenin-knockout colon cells, dose response, cell-based, HCT116, human colon tumor (AID 1045); type: functional;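 note: HCT116 colon tumor cells with beta catenin knocked out; cells exposed to compound for 60 hours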
[23] = Luminescence Cell-Based Dose Retest to Confirm Inhibitors of Cancer Stem Cells. [Related pubchem assays (depositor defined):AID2717, AID2721]; type: functional; details: Homo sapiens
[24] = target: Neurotensin receptor type 1 (Homo sapiens, UniProt P30989); type: functional;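 note: Image-based confirmatory dose-response assay measuring agonist activity at NTR1; NTR1-expressing U2OS osteosarcoma cells imaged for beta-arrestin GFP spot formation; agonist potency where compounds increase beta-arrestin recruitment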
[25] = tested on: INS1; assay: beta cell apoptosis inhibitors, cytokine rescue, dose response, luminescence, retest (AID 449756); type: functional, cell-based; details: Rattus norvegicus;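 note: cell death triggered by IL-1 beta plus TNF-alpha plus IFN-gamma mixture; protective hits raise ATP signal compared with cytokine alone wells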
[26] = target: T3, Estrogen receptor (Homo sapiens, UniProt P03372);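 note: potency for inhibiting coactivator peptide recruitment to the receptor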
T3 sequence (P03372 whole entry): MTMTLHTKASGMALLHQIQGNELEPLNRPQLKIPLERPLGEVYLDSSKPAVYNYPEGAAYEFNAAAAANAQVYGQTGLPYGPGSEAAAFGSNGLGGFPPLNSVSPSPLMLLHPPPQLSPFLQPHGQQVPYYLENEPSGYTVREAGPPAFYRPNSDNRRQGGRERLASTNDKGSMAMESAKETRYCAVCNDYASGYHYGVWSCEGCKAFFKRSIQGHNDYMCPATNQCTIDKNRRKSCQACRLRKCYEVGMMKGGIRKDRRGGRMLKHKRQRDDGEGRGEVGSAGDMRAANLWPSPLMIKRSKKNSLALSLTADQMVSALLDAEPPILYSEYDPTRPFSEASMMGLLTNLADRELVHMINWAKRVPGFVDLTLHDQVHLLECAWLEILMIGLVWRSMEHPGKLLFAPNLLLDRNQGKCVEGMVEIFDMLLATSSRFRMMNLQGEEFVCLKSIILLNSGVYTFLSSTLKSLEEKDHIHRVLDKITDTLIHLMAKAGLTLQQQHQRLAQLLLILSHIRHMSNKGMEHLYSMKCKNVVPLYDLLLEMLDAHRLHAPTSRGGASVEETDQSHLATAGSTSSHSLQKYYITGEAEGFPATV

[27] = target: G-protein coupled receptor 55 (Homo sapiens, UniProt Q9Y2T6); assay: GPR55 agonists via beta-arrestin recruitment, primary screen, imaging, U2OS cells, beta-arrestin-GFP redistribution (AID 1961); type: functional
[28] = Luminescence Cell-Based Dose Response HTS to Identify Activators of Luciferase Translation or Activity in H4 […] Cells. [Related pubchem assays: 1829 (Project Summary), 1814 (Primary HTS)]; type: functional
[29] = tested on: H4; assay: Luminescence Cell-Based Dose Response HTS to Identify Activators of 5'UTR Stem-Loop Driven Prion Protein mRNA Translation in H4 Neuroglioblastoma Cells. [Related pubchem assays: 1829 (Project Summary), 1814 (Primary HTS)]; type: functional; details: Homo sapiens
[30] = target: NACHT, LRR and PYD domains-containing protein 3 (Homo sapiens, UniProt Q96P20); assay: NALP3 inhibitors in yeast, dose response, luminescent (AID 488799); type: functional
[31] = target: T4, Short transient receptor potential channel 4 (Mus musculus, UniProt Q9QUQ5); assay: TRPC4 positive allosteric modulators, dose response, cell-based, HEK293 TRPC4/mu-opioid, Fluo-4 calcium, EC20 DAMGO (AID 434941); type: functional
T4 sequence (Q9QUQ5 whole entry): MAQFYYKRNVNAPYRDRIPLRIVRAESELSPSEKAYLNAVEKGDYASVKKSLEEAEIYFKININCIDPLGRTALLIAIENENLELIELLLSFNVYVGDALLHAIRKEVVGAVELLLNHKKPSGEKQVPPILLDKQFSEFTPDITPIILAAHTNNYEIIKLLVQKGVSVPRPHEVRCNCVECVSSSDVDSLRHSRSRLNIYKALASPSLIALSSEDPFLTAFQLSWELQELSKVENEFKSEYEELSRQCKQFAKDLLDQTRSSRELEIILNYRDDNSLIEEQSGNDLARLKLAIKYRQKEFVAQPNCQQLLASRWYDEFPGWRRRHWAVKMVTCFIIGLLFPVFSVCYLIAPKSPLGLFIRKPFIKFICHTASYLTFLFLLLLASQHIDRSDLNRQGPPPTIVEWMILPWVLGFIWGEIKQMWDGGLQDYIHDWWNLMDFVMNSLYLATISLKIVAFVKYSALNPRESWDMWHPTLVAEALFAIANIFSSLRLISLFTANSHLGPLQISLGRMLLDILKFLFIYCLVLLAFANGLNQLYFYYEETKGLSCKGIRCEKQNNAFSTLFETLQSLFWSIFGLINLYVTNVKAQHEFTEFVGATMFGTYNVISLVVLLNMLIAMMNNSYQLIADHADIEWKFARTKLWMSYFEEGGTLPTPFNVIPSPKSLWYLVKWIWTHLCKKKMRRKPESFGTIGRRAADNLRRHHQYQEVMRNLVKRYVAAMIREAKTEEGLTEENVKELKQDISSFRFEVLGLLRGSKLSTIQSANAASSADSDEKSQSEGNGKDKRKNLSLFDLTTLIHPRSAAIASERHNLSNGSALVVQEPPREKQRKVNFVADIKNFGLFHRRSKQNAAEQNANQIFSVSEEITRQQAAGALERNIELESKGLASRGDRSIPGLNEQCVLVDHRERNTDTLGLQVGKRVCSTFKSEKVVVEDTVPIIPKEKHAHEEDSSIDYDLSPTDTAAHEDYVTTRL

O=c1oc2c3c4c(cc2c(C(F)(F)F)c1CCN1CCOCC1)CCCN4CCC3
EC50 [1]: > 3.32 µM (inactive) | EC50 [2]: 4.56 µM (active)

CC(C)CCn1c(SCc2ccc(Cl)cc2)nc2c1c(=O)[nH]c(=O)n2C
EC50 [3]: 14.3 µM (active) | EC50 [4]: 13.3 µM (active) | EC50 [5]: 11.6 µM (active) | Absolute IC50 (CHOP) [6]: < 10 µM | Absolute IC50 (XBP1) [7]: 10 µM

O=C(Cn1ccnc1)c1ccc(O)c(O)c1
IC50 [8]: 5.37 µM (active) | IC50 [9]: > 100 µM (inactive)

CCOc1ccc(-c2nc(N)ncc2-c2ccccc2)c(O)c1
IC50 [10]: 12.7 µM (not active) | EC50 [11]: 0.173 µM (active) | EC50 [12]: 25.8 µM (inactive)

C=CCN1C(=O)/C(=C/c2ccc(N3CCOCC3)o2)C(=O)NC1=S
EC50 [13]: 5.95 µM (active)

O=C(/C(=C/c1cccc(Cl)c1)c1nc2ccccc2[nH]1)c1ccccc1
EC50 [14]: > 20 µM (inactive) | IC50 [15]: 1.63 µM (active) | IC50 [16]: 13.4 µM (active) | EC50 [17]: > 20 µM (inactive) | IC50 [18]: 3.14 µM (active) | EC50 [19]: 0.755 µM (active) | IC50 [20]: > 20 µM (inactive) | EC50 [21]: 3.93 µM (active) | EC50 [22]: 3.7 µM (active) | AC50 [23]: 1.97 µM (active) | EC50 [24]: 8.48 µM (active) | AC50 [25]: 4.22 µM (active)

CCc1nnc2n1N=C(c1ccc(-c3cc(Cl)ccc3Cl)o1)CS2
IC50 [26]: 44 µM (not active) | EC50 [21]: 27.1 µM (active) | EC50 [22]: 95.9 µM (active) | EC50 [27]: 0.734 µM (active)

O=C(Nc1cccc(Cl)c1)c1cnn2cccnc12
EC50 [28]: 3 µM (active) | EC50 [29]: 19.1 µM (active) | IC50 [30]: 8.19 µM (active) | EC50 [31]: 1.68 µM (active)
